T/C data for 17 compounds are collected here from PubChem BioAssay AID256 (DTP/NCI, 2004).

“And” between values parts separate entries of the source, which are not always exact repeats. Identical values can stand only once. Toxic doses and inconclusive results are not listed.

The test system of this experiment is CD2F1 mice, L1210 leukemia ip, survival T/C. The experiment can be described thus: NCI In Vivo Anticancer Drug Screen. Data for tumor model L1210 Leukemia (intraperitoneal) in CD2F1 (CDF1) mice. Conditions: higher = longer survival. The method in brief:
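Each value reflects a quotient of treated over vehicle control outcomes in mice with a transplanted tumor.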

Where [1] appears, read: endpoint: mean survival time, dose: 100.0 mg/kg/injection, schedule: Q04DX003 (ip), vehicle: saline with Tween-80.
[2] abbreviates: endpoint: mean survival time, dose: 200.0 mg/kg/injection, schedule: Q04DX003 (ip), vehicle: saline with Tween-80.
Where [3] appears, read: endpoint: mean survival time, dose: 400.0 mg/kg/injection, schedule: Q04DX003 (ip), vehicle: saline with Tween-80.
Setting [4] is: endpoint: mean survival time, dose: 100.0 mg/kg/injection, schedule: Q04DX002 (ip), vehicle: saline with Tween-80.
Setting [5] is: endpoint: mean survival time, dose: 200.0 mg/kg/injection, schedule: Q04DX002 (ip), vehicle: saline with Tween-80.
[6] abbreviates: endpoint: mean survival time, dose: 50.0 mg/kg/injection, schedule: Q01DX009 (ip), vehicle: saline with Tween-80.
The mark [7] stands for this setting: endpoint: mean survival time, dose: 100.0 mg/kg/injection, schedule: Q01DX001 (ip), vehicle: saline with Tween-80.
Setting [8] is: endpoint: mean survival time, dose: 200.0 mg/kg/injection, schedule: Q01DX001 (ip), vehicle: saline with Tween-80.
Where [9] appears, read: endpoint: mean survival time, dose: 400.0 mg/kg/injection, schedule: Q01DX001 (ip), vehicle: saline with Tween-80.
Setting [10] is: endpoint: mean survival time, dose: 400.0 mg/kg/injection, schedule: Q04DX002 (ip), vehicle: saline with Tween-80.
[11] abbreviates: endpoint: mean survival time, dose: 100.0 mg/kg/injection, schedule: Q01DX009 (ip), vehicle: saline with Tween-80.
The mark [12] stands for this setting: endpoint: mean survival time, dose: 200.0 mg/kg/injection, schedule: Q01DX009 (ip), vehicle: saline with Tween-80.
The mark [13] stands for this setting: endpoint: mean survival time, dose: 400.0 mg/kg/injection, schedule: Q01DX009 (ip), vehicle: saline with Tween-80.
Where [14] appears, read: endpoint: mean survival time, dose: 25.0 mg/kg/injection, schedule: Q01DX009 (ip), vehicle: saline with Tween-80.

For `CC1(c2ccccc2)NC(=O)NC1=O` (stereo not drawn), the T/C (endpoint: mean survival time, dose: 100.0 mg/kg/injection, schedule: Q01DX009 (ip), vehicle: other) was 98 % of control; the T/C under setting [1] was 94 % of control; the T/C (endpoint: mean survival time, dose: 200.0 mg/kg/injection, schedule: Q01DX009 (ip), vehicle: other) is 97 % of control; the T/C under setting [2] is 97 % of control; the T/C under setting [3] was 91 % of control.

As to `O=c1nc(-c2ccccc2)c(-c2ccccc2)n[nH]1`, the T/C is, setting by setting: (endpoint: mean survival time, dose: 100.0 mg/kg/injection, schedule: Q04DX003 (ip), vehicle: saline) 97 % of control; (endpoint: mean survival time, dose: 200.0 mg/kg/injection, schedule: Q04DX003 (ip), vehicle: saline) 94 % of control.

On to `O=C(O)c1ccc(O)cc1C(=O)O.[NH-]C1CCCCC1[NH-].[Pt+2]`, for which the T/C (endpoint: mean survival time, dose: 1.17 mg/kg/injection, schedule: Q04DX003 (ip), vehicle: other) was 168 % of control; the T/C (endpoint: mean survival time, dose: 9.38 mg/kg/injection, schedule: Q04DX003 (ip), vehicle: other) is 194 % of control; the T/C (endpoint: mean survival time, dose: 18.75 mg/kg/injection, schedule: Q04DX003 (ip), vehicle: other) was 189 % of control.

Take `CC1(C)N=C(N)N=C(N)N1c1cccc(/C=C(\C#N)c2ccccc2)c1`: the T/C is 98 % of control (endpoint: mean survival time, dose: 100.0 mg/kg/injection, schedule: Q04DX002 (ip), vehicle: Klucel (hydroxypropylcellulose) (HPC)) and 95 % of control (endpoint: mean survival time, dose: 200.0 mg/kg/injection, schedule: Q04DX002 (ip), vehicle: Klucel (hydroxypropylcellulose) (HPC)).

For the compound `Cc1ccc(CCC=O)o1`, the T/C is 100 % of control (endpoint: mean survival time, dose: 50.0 mg/kg/injection, schedule: Q04DX002 (ip), vehicle: saline with Tween-80); 100 % of control under setting [4]; 100 % of control under setting [5].

Take `Nc1nc(N)c(-c2ccc(Cl)c(Cl)c2)c(CP(Cl)(Cl)(Cl)Br)n1`: the T/C runs as follows: (endpoint: mean survival time, dose: 12.5 mg/kg/injection, schedule: Q01DX009 (ip), vehicle: Klucel (hydroxypropylcellulose) (HPC)) 100 % of control; (endpoint: mean survival time, dose: 25.0 mg/kg/injection, schedule: Q01DX009 (ip), vehicle: Klucel (hydroxypropylcellulose) (HPC)) 94 % of control; (endpoint: mean survival time, dose: 50.0 mg/kg/injection, schedule: Q01DX009 (ip), vehicle: Klucel (hydroxypropylcellulose) (HPC)) 102 % of control; under setting [6], 160 % of control; under setting [7], 98 % of control; (endpoint: mean survival time, dose: 100.0 mg/kg/injection, schedule: Q01DX009 (ip), vehicle: Klucel (hydroxypropylcellulose) (HPC)) 88 % of control. Moreover, the T/C reads like this: under setting [4], 94 % of control; under setting [1], 95 % of control; under setting [8], 90 % of control; under setting [5], 107 % of control; under setting [2], 100 % of control; under setting [9], 105 % of control. The T/C under setting [10] was 100 % of control.

Turning to `CN(CCO)c1c(Cl)c(=O)oc2ccc(Cl)cc12`, the T/C was 97 % of control under setting [11], 101 % of control under setting [12] and 106 % of control under setting [13].

As for `NCC1=NCCN1`, the T/C reads like this: (endpoint: mean survival time, dose: 100.0 mg/kg/injection, schedule: Q04DX002 (ip), vehicle: saline) 124 % of control; (endpoint: mean survival time, dose: 200.0 mg/kg/injection, schedule: Q04DX002 (ip), vehicle: saline) 95 % of control; (endpoint: mean survival time, dose: 400.0 mg/kg/injection, schedule: Q04DX002 (ip), vehicle: saline) 102 % of control.

With `CCCCCCCCCCCCCC(=O)[O][Sn]([CH2]CCC)([CH2]CCC)[O]C(=O)CCCCCCCCCCCCC`, the T/C is 97 % of control (endpoint: mean survival time, dose: 0.78 mg/kg/injection, schedule: Q01DX009 (ip), vehicle: other); 100 % of control (endpoint: mean survival time, dose: 1.56 mg/kg/injection, schedule: Q01DX009 (ip), vehicle: other); 112 % of control (endpoint: mean survival time, dose: 3.13 mg/kg/injection, schedule: Q01DX009 (ip), vehicle: other).

As for `N=C(N)SCc1cccc2c(=O)cc(-c3ccccc3)oc12`, the T/C runs as follows: under setting [14], 95 % of control; under setting [6], 96 % of control; under setting [11], 101 % of control; under setting [12], 104 % of control; (endpoint: median survival time, dose: 25.0 mg/kg/injection, schedule: Q01DX009 (ip), vehicle: saline) 113 % of control; (endpoint: median survival time, dose: 50.0 mg/kg/injection, schedule: Q01DX009 (ip), vehicle: saline) 113 % of control. For the same compound, the T/C (endpoint: median survival time, dose: 100.0 mg/kg/injection, schedule: Q01DX009 (ip), vehicle: saline) was 114 % of control; the T/C (endpoint: median survival time, dose: 200.0 mg/kg/injection, schedule: Q01DX009 (ip), vehicle: saline) is 113 % of control; the T/C (endpoint: median survival time, dose: 400.0 mg/kg/injection, schedule: Q01DX009 (ip), vehicle: saline) is 97 % of control.

On to `O=c1[nH]cc(F)c(=O)n1C1OC(CO)C(O)C1O` (stereo not drawn), for which the T/C (endpoint: mean survival time, dose: 1.0 mg/kg/injection, schedule: Q01DX009 (ip), vehicle: saline) was 169 % of control; the T/C (endpoint: mean survival time, dose: 2.0 mg/kg/injection, schedule: Q01DX005 (ip), vehicle: saline) is 160 % of control; the T/C (endpoint: mean survival time, dose: 2.0 mg/kg/injection, schedule: Q01DX009 (ip), vehicle: saline) was 160 % of control; the T/C (endpoint: mean survival time, dose: 4.0 mg/kg/injection, schedule: Q01DX005 (ip), vehicle: saline) was 207 % of control; the T/C (endpoint: mean survival time, dose: 4.0 mg/kg/injection, schedule: Q01DX009 (ip), vehicle: saline) was 124 % of control; the T/C (endpoint: mean survival time, dose: 5.0 mg/kg/injection, schedule: Q03HX024 (ip), vehicle: saline) is 155 % of control. The T/C reads like this: (endpoint: mean survival time, dose: 5.0 mg/kg/injection, schedule: Q04DX003 (ip), vehicle: saline) 163 % of control; (endpoint: mean survival time, dose: 10.0 mg/kg/injection, schedule: Q03HX024 (ip), vehicle: saline) 231 % of control; (endpoint: mean survival time, dose: 10.0 mg/kg/injection, schedule: Q04DX003 (ip), vehicle: saline) 189 % of control; (endpoint: mean survival time, dose: 20.0 mg/kg/injection, schedule: Q01DX001 (ip), vehicle: saline) 151 % of control; (endpoint: mean survival time, dose: 20.0 mg/kg/injection, schedule: Q03HX024 (ip), vehicle: saline) 151 % of control; (endpoint: mean survival time, dose: 20.0 mg/kg/injection, schedule: Q04DX003 (ip), vehicle: saline) 184 % of control.

On to `CN(C)N=Nc1ccc(C(N)=O)cc1C(N)=O`, for which the T/C is 115 % of control and 104 % of control (endpoint: mean survival time, dose: 18.75 mg/kg/injection, schedule: Q01DX009 (ip), vehicle: Klucel (hydroxypropylcellulose) (HPC)); 122 % of control and 112 % of control (endpoint: mean survival time, dose: 37.5 mg/kg/injection, schedule: Q01DX009 (ip), vehicle: Klucel (hydroxypropylcellulose) (HPC)); 123 % of control and 124 % of control (endpoint: mean survival time, dose: 75.0 mg/kg/injection, schedule: Q01DX009 (ip), vehicle: Klucel (hydroxypropylcellulose) (HPC)).

On to `O=C(c1ccc(-c2ccccc2)cc1)C1CCCCC1`, for which the T/C runs as follows: under setting [11], 94 % of control; under setting [12], 97 % of control; under setting [13], 86 % of control.

As to `Oc1cccc2ccccc12`, the T/C reads like this: (endpoint: median survival time, dose: 50.0 mg/kg/injection, schedule: Q01DX005 (ip), vehicle: water) 95 % of control; (endpoint: median survival time, dose: 100.0 mg/kg/injection, schedule: Q01DX005 (ip), vehicle: water) 95 % of control; (endpoint: median survival time, dose: 200.0 mg/kg/injection, schedule: Q01DX005 (ip), vehicle: water) 101 % of control; (endpoint: median survival time, dose: 400.0 mg/kg/injection, schedule: Q01DX005 (ip), vehicle: water) 93 % of control.

With `O=C(NC(=S)Nc1cc(Cl)ccc1Cl)c1cccc(Br)c1`, the T/C reads like this: under setting [6], 100 % of control; under setting [7], 100 % of control; under setting [11], 101 % of control and 105 % of control and 106 % of control; under setting [4], 89 % of control and 95 % of control; under setting [1], 94 % of control; under setting [8], 97 % of control. In addition, the T/C by setting is: under setting [12], 98 % of control and 101 % of control; under setting [5], 90 % of control and 95 % of control; under setting [2], 90 % of control; under setting [9], 100 % of control; under setting [13], 115 % of control (2×) and 105 % of control; under setting [10], 92 % of control and 95 % of control. For the same compound, the T/C under setting [3] is 86 % of control.

Regarding `CCCCCCCCCCCCCC#CC(=O)O`, the T/C was 101 % of control and 109 % of control (endpoint: mean survival time, dose: 3.12 mg/kg/injection, schedule: Q01DX009 (ip), vehicle: saline with Tween-80); 96 % of control and 98 % of control (endpoint: mean survival time, dose: 6.25 mg/kg/injection, schedule: Q01DX009 (ip), vehicle: saline with Tween-80); 91 % of control and 98 % of control (endpoint: mean survival time, dose: 12.5 mg/kg/injection, schedule: Q01DX009 (ip), vehicle: saline with Tween-80); 91 % of control and 98 % of control under setting [14]; 91 % of control and 95 % of control under setting [6]; 88 % of control under setting [11].

As for `CC1CC(C)(C)[N+](C)=C(CCc2ccccc2)O1` (stereo not drawn), under setting [7], the T/C is 93 % of control.
